In patent publication US9050341B2, “Methods of treating drug resistant and other tumors by administering 6,7-dialkoxy quinazoline derivatives” (NATCO PHARMA LIMITED, priority 2009, dated 2015):

Legend:
ABL1 (F317I) = biological target: T1, ABL1 (F317I) (Homo sapiens, UniProt P00519, F317I); assay: KinomeScan kinase profiling; format: binding
T1 construct: host or cells: E. coli host derived from BL21 (T7 phage lysate)

ABL1 (T315I) = biological target: T2, ABL1 (T315I) (Homo sapiens, UniProt P00519, T315I); assay: KinomeScan kinase profiling; format: binding
T2 construct: host or cells: E. coli host derived from BL21 (T7 phage lysate)

ACVR1B = biological target: T3, ACVR1B (Homo sapiens, UniProt P36896); assay: KinomeScan kinase profiling; format: binding
T3 construct: host or cells: E. coli host derived from BL21 (T7 phage lysate)

ACVRL1 = biological target: T4, ACVRL1 (Homo sapiens, UniProt P37023); assay: KinomeScan kinase profiling; format: binding
T4 construct: host or cells: E. coli host derived from BL21 (T7 phage lysate)

AKT1 = biological target: T5, AKT1 (Homo sapiens, UniProt P31749); assay: KinomeScan kinase profiling; format: binding
T5 construct: host or cells: E. coli host derived from BL21 (T7 phage lysate)

AKT2 = biological target: T6, AKT2 (Homo sapiens, UniProt P31751); assay: KinomeScan kinase profiling; format: binding
T6 construct: host or cells: E. coli host derived from BL21 (T7 phage lysate)

BMPR1A = biological target: T7, BMPR1A (Homo sapiens, UniProt P36894); assay: KinomeScan kinase profiling; format: binding
T7 construct: purchased Ambit Biosciences Corp (KinomeScan); host or cells: E. coli host derived from the BL21 strain, T7 phage

CAMK2B = biological target: T8, CAMK2B (Homo sapiens, UniProt Q13554); assay: KinomeScan kinase profiling; format: binding
T8 construct: purchased Ambit Biosciences Corp (KinomeScan); host or cells: E. coli host derived from the BL21 strain, T7 phage

CDC2L1 = biological target: T9, CDC2L1 (Homo sapiens, UniProt P21127); assay: KinomeScan kinase profiling; format: binding
T9 construct: host or cells: T7 phage in E. coli (BL21-derived)

CDK9 = biological target: T10, CDK9 (Homo sapiens, UniProt P50750); assay: KinomeScan kinase profiling; format: binding
T10 construct: host or cells: T7 phage in E. coli (BL21-derived)

CHEK1 = biological target: T11, CHEK1 (Homo sapiens, UniProt O14757); assay: KinomeScan kinase profiling; format: binding
T11 construct: host or cells: T7 phage in E. coli (BL21-derived)

DCAMKL2 = biological target: T12, DCAMKL2 (Homo sapiens, UniProt Q8N568); assay: KinomeScan kinase profiling; format: binding
T12 construct: purchased Ambit Biosciences Corp (KinomeScan); host or cells: T7 phage in E. coli host derived from BL21

DYRK1B = biological target: T13, DYRK1B (Homo sapiens, UniProt Q9Y463); assay: KinomeScan kinase profiling; format: binding
T13 construct: purchased Ambit Biosciences Corp (KinomeScan); host or cells: T7 phage in E. coli host derived from BL21

EPHA1 = biological target: T14, EPHA1 (Homo sapiens, UniProt P21709); assay: KinomeScan kinase profiling; format: binding
T14 construct: host or cells: E. coli host derived from BL21, T7 phage lysate

FGFR1 = biological target: T15, FGFR1 (Homo sapiens, UniProt P11362); assay: KinomeScan kinase profiling; format: binding
T15 construct: host or cells: E. coli host derived from BL21, infected with T7 phage

IKK-beta = biological target: T16, IKK-beta (Homo sapiens, UniProt O14920); assay: KinomeScan kinase profiling; format: binding
T16 construct: host or cells: T7 phage in E. coli host derived from BL21

LATS2 = biological target: T17, LATS2 (Homo sapiens, UniProt Q9NRM7); assay: KinomeScan kinase profiling; format: binding
T17 construct: host or cells: T7 phage in E. coli host derived from BL21

MAPKAPK2 = biological target: T18, MAPKAPK2 (Homo sapiens, UniProt P49137); assay: KinomeScan kinase profiling; format: binding
T18 construct: host or cells: E. coli derived from BL21, infected with T7 phage

MARK3 = biological target: T19, MARK3 (Homo sapiens, UniProt P27448); assay: KinomeScan kinase profiling; format: binding
T19 construct: host or cells: E. coli derived from BL21, infected with T7 phage

MUSK = biological target: T20, MUSK (Homo sapiens, UniProt O15146); assay: KinomeScan kinase profiling; format: binding
T20 construct: host or cells: T7 phage in E. coli host derived from BL21

PAK6 = biological target: T21, PAK6 (Homo sapiens, UniProt Q9NQU5); assay: KinomeScan kinase profiling; format: binding
T21 construct: host or cells: E. coli host derived from the BL21 strain, infected with T7 phage

PDPK1 = biological target: T22, PDPK1 (Homo sapiens, UniProt O15530); assay: KinomeScan kinase profiling; format: binding
T22 construct: host or cells: E. coli host derived from the BL21 strain, infected with T7 phage

PKAC-alpha = biological target: T23, PKAC-alpha (Homo sapiens, UniProt P17612); assay: KinomeScan kinase profiling; format: binding
T23 construct: purchased Ambit Biosciences Corp (KinomeScan); host or cells: E. coli host derived from BL21, infected with T7 phage

PKAC-beta = biological target: T24, PKAC-beta (Homo sapiens, UniProt P22694); assay: KinomeScan kinase profiling; format: binding
T24 construct: purchased Ambit Biosciences Corp (KinomeScan); host or cells: E. coli host derived from BL21, infected with T7 phage

PKN1 = biological target: T25, PKN1 (Homo sapiens, UniProt Q16512); assay: KinomeScan kinase profiling; format: binding
T25 construct: purchased Ambit Biosciences Corp (KinomeScan); host or cells: E. coli host derived from BL21, infected with T7 phage

PRKCD = biological target: T26, PRKCD (Homo sapiens, UniProt Q05655); assay: KinomeScan kinase profiling; format: binding
T26 construct: purchased Ambit Biosciences Corp (KinomeScan); host or cells: E. coli host derived from BL21, infected with T7 phage

[1] = biological target: T27, RPS6KA1 (Kin.Dom.-2-C-terminal) (Homo sapiens, UniProt Q15418); assay: KinomeScan kinase profiling; format: binding
T27 construct: RPS6KA1 (Kin.Dom.-2-C-terminal); host or cells: E. coli host derived from BL21, T7 phage lysate

SRPK1 = biological target: T28, SRPK1 (Homo sapiens, UniProt Q96SB4); assay: KinomeScan kinase profiling; format: binding
T28 construct: host or cells: E. coli host derived from the BL21 strain, T7 phage lysate

STK33 = biological target: T29, STK33 (Homo sapiens, UniProt Q9BYT3); assay: KinomeScan kinase profiling; format: binding
T29 construct: host or cells: E. coli host derived from the BL21 strain, T7 phage lysate

TGFBR1 = biological target: T30, TGFBR1 (Homo sapiens, UniProt P36897); assay: KinomeScan kinase profiling; format: binding
T30 construct: host or cells: E. coli host derived from the BL21 strain, T7 phage lysate

TLK2 = biological target: T31, TLK2 (Homo sapiens, UniProt Q86UE8); assay: KinomeScan kinase profiling; format: binding
T31 construct: purchased Ambit Biosciences Corp (KinomeScan); host or cells: E. coli host derived from the BL21 strain (T7 phage lysate)

ULK2 = biological target: T32, ULK2 (Homo sapiens, UniProt Q8IYT8); assay: KinomeScan kinase profiling; format: binding
T32 construct: purchased Ambit Biosciences Corp (KinomeScan); host or cells: E. coli host derived from the BL21 strain (T7 phage lysate)

YES = biological target: T33, YES (Homo sapiens, UniProt P07947); assay: KinomeScan kinase profiling; format: binding
T33 construct: purchased Ambit Biosciences Corp (KinomeScan); host or cells: E. coli host derived from the BL21 strain (T7 phage lysate)

hERG channel = hERG channel (Homo sapiens, UniProt Q12809); assay: hERG whole cell patch-clamp in CHO cells; conditions: 10 μM
Description: The test compound was evaluated at 10 μM in 0.1% DMSO (v/v). […] The vehicle control was 0.1% (v/v) DMSO in EC solution.
The selection medium was F-12 (Ham)+GlutaMAX, Ph 7.2, 10% FBS, Penicillin (100 U/mL), Streptomycin (100 μg/mL), Blasticidin S HCL (30 μg/mL) and Hygromycin B (400 μg/mL). The growth medium was F-12 (Ham)+GlutaMAX, 10% FBS, Penicillin (100 U/mL) and Streptomycin (100 μg/mL). The induction medium was F-12 (Ham)+GlutaMAX, 10% FBS, Penicillin (100 U/mL) and Streptomycin (100 μg/mL) and Doxycycline (3 μg/mL). The cell dissociation solution was 0.05% Trypsin-EDTA.

[2] = Acute oral toxicity (MTD) in Swiss albino mice; format: in vivo; conditions: for clinical signs of toxicity: oral, 1000 mg/kg (high dose), mono hydrochloride, 1000 mg/kg
Description: 20 male and 20 female Swiss albino mice were randomly divided into four groups (G1-G4). Each group was 5 male and 5 female Swiss albino mice. […] G1 was treated with placebo and served as a control. […] The mid dose group animals (G3-treated with 500 mg/kg b.wt) were administered the dose formulation twice with a gap of approximately 1 hour. Animals from high dose group (G4-treated with 1000 mg/kg b.wt) received the dose formulation four times with a gap of approximately one hour.

T15 sequence (P11362 22-822): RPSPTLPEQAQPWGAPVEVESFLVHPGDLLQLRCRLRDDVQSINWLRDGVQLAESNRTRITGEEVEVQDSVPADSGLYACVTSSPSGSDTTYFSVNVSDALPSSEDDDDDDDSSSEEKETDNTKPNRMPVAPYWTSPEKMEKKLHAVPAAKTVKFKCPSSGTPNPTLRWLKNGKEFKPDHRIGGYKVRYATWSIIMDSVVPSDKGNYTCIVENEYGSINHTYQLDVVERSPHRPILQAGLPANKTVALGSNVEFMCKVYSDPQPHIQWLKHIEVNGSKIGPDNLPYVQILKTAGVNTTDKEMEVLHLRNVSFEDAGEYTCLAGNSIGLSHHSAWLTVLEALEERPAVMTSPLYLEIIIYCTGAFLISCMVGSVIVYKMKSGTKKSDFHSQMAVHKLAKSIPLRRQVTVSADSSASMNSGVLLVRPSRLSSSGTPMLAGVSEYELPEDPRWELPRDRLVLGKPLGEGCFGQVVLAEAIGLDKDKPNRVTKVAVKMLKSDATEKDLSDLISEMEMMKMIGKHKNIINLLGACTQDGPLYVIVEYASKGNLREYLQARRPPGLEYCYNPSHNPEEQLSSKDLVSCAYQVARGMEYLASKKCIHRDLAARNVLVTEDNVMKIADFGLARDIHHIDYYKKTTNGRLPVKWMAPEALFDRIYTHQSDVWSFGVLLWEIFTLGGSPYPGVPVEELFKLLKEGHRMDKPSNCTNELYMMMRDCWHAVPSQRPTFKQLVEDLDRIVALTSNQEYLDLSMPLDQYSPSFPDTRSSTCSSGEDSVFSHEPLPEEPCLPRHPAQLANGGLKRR
T13 sequence (Q9Y463 whole entry): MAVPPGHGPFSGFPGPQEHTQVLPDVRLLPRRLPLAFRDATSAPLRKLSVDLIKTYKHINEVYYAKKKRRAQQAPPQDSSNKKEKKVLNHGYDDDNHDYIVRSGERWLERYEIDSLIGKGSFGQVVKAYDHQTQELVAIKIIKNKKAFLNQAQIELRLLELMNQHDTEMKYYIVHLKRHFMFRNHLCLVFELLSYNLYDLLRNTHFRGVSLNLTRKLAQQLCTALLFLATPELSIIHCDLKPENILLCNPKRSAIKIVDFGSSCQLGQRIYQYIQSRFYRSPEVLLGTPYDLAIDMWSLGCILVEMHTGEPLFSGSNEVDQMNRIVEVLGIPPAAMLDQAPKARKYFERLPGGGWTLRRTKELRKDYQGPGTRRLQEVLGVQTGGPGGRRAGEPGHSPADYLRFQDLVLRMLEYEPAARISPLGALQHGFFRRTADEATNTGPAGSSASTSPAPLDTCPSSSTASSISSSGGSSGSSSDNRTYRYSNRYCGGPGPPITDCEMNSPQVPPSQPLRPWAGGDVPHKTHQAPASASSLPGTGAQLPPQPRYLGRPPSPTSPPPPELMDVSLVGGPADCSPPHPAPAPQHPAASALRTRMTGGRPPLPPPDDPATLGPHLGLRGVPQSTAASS
T8 sequence (Q13554 whole entry): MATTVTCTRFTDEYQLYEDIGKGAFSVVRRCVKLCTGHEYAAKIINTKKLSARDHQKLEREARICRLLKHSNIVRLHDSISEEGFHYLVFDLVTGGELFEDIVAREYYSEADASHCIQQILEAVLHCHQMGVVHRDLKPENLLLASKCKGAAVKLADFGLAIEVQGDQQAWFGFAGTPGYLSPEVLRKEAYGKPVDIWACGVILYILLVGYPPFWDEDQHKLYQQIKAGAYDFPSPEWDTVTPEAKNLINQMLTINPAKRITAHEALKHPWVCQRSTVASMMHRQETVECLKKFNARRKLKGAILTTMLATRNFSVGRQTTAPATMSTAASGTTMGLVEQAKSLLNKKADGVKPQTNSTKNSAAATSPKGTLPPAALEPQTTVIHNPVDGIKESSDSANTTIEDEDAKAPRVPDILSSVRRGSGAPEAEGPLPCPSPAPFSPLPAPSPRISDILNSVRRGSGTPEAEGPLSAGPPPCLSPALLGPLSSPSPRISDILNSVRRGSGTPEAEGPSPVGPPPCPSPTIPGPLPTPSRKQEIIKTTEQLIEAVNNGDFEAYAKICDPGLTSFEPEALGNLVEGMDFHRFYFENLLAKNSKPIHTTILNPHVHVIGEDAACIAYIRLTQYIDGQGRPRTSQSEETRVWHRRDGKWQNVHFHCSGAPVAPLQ
T31 sequence (Q86UE8 whole entry): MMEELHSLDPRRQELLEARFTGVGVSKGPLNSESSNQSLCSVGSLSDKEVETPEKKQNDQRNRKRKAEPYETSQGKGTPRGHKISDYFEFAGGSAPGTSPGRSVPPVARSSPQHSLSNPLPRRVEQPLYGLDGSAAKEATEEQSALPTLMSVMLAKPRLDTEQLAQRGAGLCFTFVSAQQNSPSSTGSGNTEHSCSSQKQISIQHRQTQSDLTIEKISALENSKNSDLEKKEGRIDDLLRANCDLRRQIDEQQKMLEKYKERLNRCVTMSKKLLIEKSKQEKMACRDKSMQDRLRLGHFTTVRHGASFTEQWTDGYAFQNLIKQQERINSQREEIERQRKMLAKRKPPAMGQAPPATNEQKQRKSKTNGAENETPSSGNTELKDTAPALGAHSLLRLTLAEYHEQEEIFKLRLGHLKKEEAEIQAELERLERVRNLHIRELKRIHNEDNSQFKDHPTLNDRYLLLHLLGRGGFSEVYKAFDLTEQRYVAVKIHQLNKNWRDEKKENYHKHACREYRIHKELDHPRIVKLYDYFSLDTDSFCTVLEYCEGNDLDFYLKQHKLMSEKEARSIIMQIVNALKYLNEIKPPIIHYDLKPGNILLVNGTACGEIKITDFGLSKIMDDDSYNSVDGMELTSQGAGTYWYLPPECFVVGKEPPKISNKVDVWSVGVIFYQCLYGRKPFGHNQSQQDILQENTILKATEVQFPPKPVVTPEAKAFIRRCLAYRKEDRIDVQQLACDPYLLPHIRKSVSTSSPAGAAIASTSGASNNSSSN
T4 sequence (P37023 22-503): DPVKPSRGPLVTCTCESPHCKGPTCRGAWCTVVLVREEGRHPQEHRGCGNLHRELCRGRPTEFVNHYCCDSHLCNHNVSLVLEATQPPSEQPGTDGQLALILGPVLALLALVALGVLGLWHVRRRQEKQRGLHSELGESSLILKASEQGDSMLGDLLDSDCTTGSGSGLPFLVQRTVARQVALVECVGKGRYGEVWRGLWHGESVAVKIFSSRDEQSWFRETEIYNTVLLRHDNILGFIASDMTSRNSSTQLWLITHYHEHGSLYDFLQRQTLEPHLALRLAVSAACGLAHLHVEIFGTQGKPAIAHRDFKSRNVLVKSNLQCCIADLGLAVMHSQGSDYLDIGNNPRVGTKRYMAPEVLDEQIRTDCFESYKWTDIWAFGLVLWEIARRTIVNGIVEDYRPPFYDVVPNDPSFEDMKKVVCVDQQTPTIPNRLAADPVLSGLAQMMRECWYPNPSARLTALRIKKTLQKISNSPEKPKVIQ
T22 sequence (O15530 whole entry): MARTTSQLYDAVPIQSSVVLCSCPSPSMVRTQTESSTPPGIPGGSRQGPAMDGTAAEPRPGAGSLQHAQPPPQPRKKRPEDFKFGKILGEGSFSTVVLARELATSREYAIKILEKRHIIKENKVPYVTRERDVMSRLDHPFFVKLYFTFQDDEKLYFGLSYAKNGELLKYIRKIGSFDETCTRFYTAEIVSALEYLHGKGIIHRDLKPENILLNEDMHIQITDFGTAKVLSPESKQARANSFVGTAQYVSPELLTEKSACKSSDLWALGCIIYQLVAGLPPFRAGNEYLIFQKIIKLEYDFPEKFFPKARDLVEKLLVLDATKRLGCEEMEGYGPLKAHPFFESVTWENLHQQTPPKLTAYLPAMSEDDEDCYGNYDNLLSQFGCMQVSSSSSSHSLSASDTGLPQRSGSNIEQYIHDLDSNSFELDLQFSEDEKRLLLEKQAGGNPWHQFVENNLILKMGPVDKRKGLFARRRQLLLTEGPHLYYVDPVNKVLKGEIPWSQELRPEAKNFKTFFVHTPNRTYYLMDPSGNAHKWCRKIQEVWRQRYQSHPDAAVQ
T32 sequence (Q8IYT8 whole entry): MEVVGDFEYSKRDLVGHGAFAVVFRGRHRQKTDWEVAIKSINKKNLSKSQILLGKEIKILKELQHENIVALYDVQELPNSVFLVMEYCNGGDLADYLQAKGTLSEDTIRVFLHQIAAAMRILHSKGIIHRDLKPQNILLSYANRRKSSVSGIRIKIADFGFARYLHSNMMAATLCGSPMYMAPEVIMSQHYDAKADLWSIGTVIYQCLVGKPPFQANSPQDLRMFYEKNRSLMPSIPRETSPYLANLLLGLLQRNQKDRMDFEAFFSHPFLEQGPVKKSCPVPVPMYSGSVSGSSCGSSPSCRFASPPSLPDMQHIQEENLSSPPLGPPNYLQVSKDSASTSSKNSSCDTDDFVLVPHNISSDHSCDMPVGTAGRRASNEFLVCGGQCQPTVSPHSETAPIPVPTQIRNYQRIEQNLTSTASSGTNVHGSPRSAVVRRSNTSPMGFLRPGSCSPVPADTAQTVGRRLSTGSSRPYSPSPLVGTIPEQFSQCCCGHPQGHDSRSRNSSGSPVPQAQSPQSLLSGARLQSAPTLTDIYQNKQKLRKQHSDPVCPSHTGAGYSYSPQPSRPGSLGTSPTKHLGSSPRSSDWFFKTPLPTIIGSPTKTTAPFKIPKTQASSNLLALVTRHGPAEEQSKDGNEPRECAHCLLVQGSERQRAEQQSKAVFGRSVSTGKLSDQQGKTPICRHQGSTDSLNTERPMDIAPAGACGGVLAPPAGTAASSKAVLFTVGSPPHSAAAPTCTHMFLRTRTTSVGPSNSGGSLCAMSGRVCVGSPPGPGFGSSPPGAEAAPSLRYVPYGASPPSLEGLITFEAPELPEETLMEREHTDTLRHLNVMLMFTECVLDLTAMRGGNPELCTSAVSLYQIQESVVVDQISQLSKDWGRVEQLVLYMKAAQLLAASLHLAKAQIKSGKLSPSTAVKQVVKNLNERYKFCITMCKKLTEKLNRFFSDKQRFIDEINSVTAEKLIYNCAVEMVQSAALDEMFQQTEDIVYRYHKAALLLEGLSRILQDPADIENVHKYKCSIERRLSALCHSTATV

## C#Cc1cccc(Nc2ncnc3cc(OC)c(OCCCN4CCOCC4)cc23)c1 [NRC-2694, N-(3-ethylnylphenyl)-7-methoxy-6-[3-(4-morpholinyl)propoxy]-4-quinazolinamine]
ABL1 (F317I)
  % Ctrl @ 10000 nM: 48 % Ctrl
ABL1 (T315I)
  % Ctrl @ 10000 nM: 35 % Ctrl
ACVR1B
  % Ctrl @ 10000 nM: 63 % Ctrl
ACVRL1
  % Ctrl @ 10000 nM: 91 % Ctrl
AKT1
  % Ctrl @ 10000 nM: 100 % Ctrl
AKT2
  % Ctrl @ 10000 nM: 100 % Ctrl
BMPR1A
  % Ctrl @ 10000 nM: 100 % Ctrl
CAMK2B
  % Ctrl @ 10000 nM: 77 % Ctrl
CDC2L1
  % Ctrl @ 10000 nM: 42 % Ctrl
CDK9
  % Ctrl @ 10000 nM: 86 % Ctrl
CHEK1
  % Ctrl @ 10000 nM: 42 % Ctrl
DCAMKL2
  % Ctrl @ 10000 nM: 69 % Ctrl
DYRK1B
  % Ctrl @ 10000 nM: 66 % Ctrl
EPHA1
  % Ctrl @ 10000 nM: 55 % Ctrl
FGFR1
  % Ctrl @ 10000 nM: 64 % Ctrl
IKK-beta
  % Ctrl @ 10000 nM: 51 % Ctrl
LATS2
  % Ctrl @ 10000 nM: 93 % Ctrl
MAPKAPK2
  % Ctrl @ 10000 nM: 90 % Ctrl
MARK3
  % Ctrl @ 10000 nM: 62 % Ctrl
MUSK
  % Ctrl @ 10000 nM: 100 % Ctrl
PAK6
  % Ctrl @ 10000 nM: 70 % Ctrl
PDPK1
  % Ctrl @ 10000 nM: 94 % Ctrl
PKAC-alpha
  % Ctrl @ 10000 nM: 100 % Ctrl
PKAC-beta
  % Ctrl @ 10000 nM: 88 % Ctrl
PKN1
  % Ctrl @ 10000 nM: 50 % Ctrl
PRKCD
  % Ctrl @ 10000 nM: 84 % Ctrl
[1]
  % Ctrl @ 10000 nM: 49 % Ctrl
SRPK1
  % Ctrl @ 10000 nM: 40 % Ctrl
STK33
  % Ctrl @ 10000 nM: 43 % Ctrl
TGFBR1
  % Ctrl @ 10000 nM: 83 % Ctrl
TLK2
  % Ctrl @ 10000 nM: 82 % Ctrl
ULK2
  % Ctrl @ 10000 nM: 39 % Ctrl
YES
  % Ctrl @ 10000 nM: 41 % Ctrl
hERG channel
  hERG channel, conclusion: an inhibitor of the hERG channel

## C#Cc1cccc(Nc2ncnc3cc(OC)c(OCCCN4CCOCC4)cc23)c1.Cl [NRC-2694 monohydrochloride, N-(3-ethylnylphenyl)-7-methoxy-6-[3-(4-morpholinyl)propoxy]-4-quinazolinamine mono hydrochloride]
[2]; acute oral gavage, Swiss albino mice
  maximum tolerated dose (MTD): 1000 mg/kg body weight
[2]; mice, after day 14
  gross pathological examination: did not reveal any lesions of pathological significance
[2]; mice, compared with control groups
  mean body weight and percent body weight: No significant alterations
[2]; mice, oral gavage, 250 mg/kg body weight (low dose) and 500 mg/kg (mid dose)
  toxic signs or mortality: did not produce any toxic signs or mortality
[2]; mice, listed as NRC-2694A blend
  clinical signs of toxicity: signs of lethargy and piloerection in all animals without any mortality
[2]; mice
  clinical signs of toxicity: mild lethargy and piloerection
[2]; mice, oral, 250, 500 and 1000 mg/kg, 14 days observation
  mortality: No mortality
